From US9161939B2, “Pyrrolo[2,3-d]pyrimidine compounds” (Zoetis LLC, priority 2008, dated 2015)

Assays:
[1] = tested on: MSU LN 10 Chemotherapy resistant B-cell lymphoma lymph node cells; experiment: Cell Proliferation Inhibitory Assay, ex vivo canine lymphoma nodal tissue MSU LN 10; format: cell-based; conditions: Canis lupus familiaris; Canine MSU LN 10, Chemotherapy resistant B-cell lymphoma; LPS + ConA
Experimental: (§1) Malignant lymph nodes were excised by veterinary staff at Michigan State University (MSU) Veterinary College, placed into transport media (Advanced RPMI 1640 complete medium supplemented with 10% Fetal Bovine Serum (FBS), 100 U/mL penicillin, 100 ug/mL streptomycin and 0.25 ug/mL Amphotercin B (Invitrogen/Gibco®). Nodes were processed within 24 hours of removal by mincing into tiny pieces and passing through a tissue sieve. Cell suspensions were spun at 200×g, supernatant was removed, and the cell pellet was resuspended in NH4Cl for 10 minutes at room temperature. The cell suspension was pelleted by centrifugation; the NH4Cl was removed and washed once with Hanks Balanced Salt Solution (HBSS), followed by re-suspension in Proliferation Medium (Advanced RPMI complete, 1% FBS, […] 2-Mercaptoethanol, 100 U/mL penicillin, 100 ug/mL streptomycin and 0.25 ug/mL Amphotercin B). The cell suspension was then passed through a 100 μm nylon cell strainer (BD-Falcon) and counted using a hemacytometer. Cells were cultured in either Proliferation Medium alone, Proliferation Medium supplemented with 0.005% Pansorbin® (Heat inactivated, formalin-fixed Staphylococcus Aureus cells (SAC), Calbiochem), and 10 ng/mL canine IL-2 (R&D Systems), or Proliferation Medium supplemented with 125 ng/mL concavalin A (Sigma) and 125 ng/mL lipopolysaccarride (LPS; Calbiochem). […]

[2] = tested on: T-cell proliferation in canine whole blood (ConA + canine IL-2); experiment: Canine In Vitro T-Cell Proliferation Assay; format: cell-based; conditions: Canis lupus familiaris, tritiated thymidine
Experimental: Methods: Canine whole blood was collected in sodium heparin tubes from 29 beagle dogs and 23 mixed breed dogs. Whole blood (20 μL) was plated in 96-well plates (Costar 3598) with 180 μL of medium (RPMI 1640, Gibco #21870-076, with 1% heat inactivated fetal bovine serum, Gibco #10082-39, 292 μg/ml L-glutamine, Gibco #250030-081, 100 u/ml penicillin and 100 μg streptomycin per ml, Gibco #15140-122) containing vehicle control or test compound (0.001 to 10 μM), concanavalin A (ConA; 1 μg/ml, Sigma C5275), and canine interleukin-2 (IL-2; 50 ng/ml, R&D Systems 1815-CL/CF). Wells containing whole blood, medium with vehicle control and no ConA or IL-2 were used as background controls. Plates were incubated at 37° C. for 48 hours. Tritiated thymidine, 0.4 μCi/well (Perkin Elmer, Net027A-005MC), was added for 20 additional hours. Plates were frozen and then thawed, washed and filtered using a Brandel MLR-96 cell harvester and prewet filter mats (Wallac 1205-401, Perkin Elmer). Filters were dried at 60° C. for one hour (Precision 16EG convection oven) and placed into filter sample bags (Wallac 1205-411, Perkin Elmer) with 10 mL of scintillant (Wallac 1205-440, Perkin Elmer). Sealed filters were counted on a LKB Wallac 1205 Betaplate liquid scintillation counter. Data were collected via Gterm Betaplate program v1.1 (Wallac copyright 1989-1990) and transformed into percent inhibition, calculated using the following formula: […]

Recombinant JAK-2 = Recombinant JAK-2 (Homo sapiens (Human), UniProt O60674); conditions: read-out: JAK-2 IC50; ATP 4 micromolar, JAKtide, 150 minutes
Experimental: (§4) Materials: Recombinant JAK-2 (Catalog Number PV4210) and JAK-3 (Catalog Number PV3855) were purchased from (Invitrogen Corporation, Madison, Wis.). Recombinant JAK-1 (GST-JAK-1 (852-1142)) and Tyk-2 (GST-Tyk2 (870-1187, C1187S)) used in this study were expressed and purified at Pfizer Laboratories. Adenosine 5′-triphosphate (ATP) was obtained from Sigma Chemical Company, St. Louis, Mo. […] Coating Reagent 3 was purchased from (Caliper Life Sciences, Hopkinton, Mass.).
(§5) Reactions were carried out in a 384-well plate (Matrical MP-101) in a 10 microliter total volume. Reaction mixtures contained 20 mM HEPES, pH 7.4, 10 mM magnesium chloride, 0.01% bovine serum albumin (BSA), 0.0005% Tween-20, ATP (4 micromolar for JAK-2 and JAK-3, 40 micromolar for JAK-1 and 7 micromolar for Tyk-2)), 2% DMSO and 1 micromolar peptide substrate (JAKtide for JAK-2 and JAK-3 or IRS-1 peptide for JAK-1 and Tyk-2). Compounds were diluted serially in 100% dimethyl sulfoxide and tested in an 11 point dose response in duplicate or quadruplicate (200 nl of compound/DMSO was added per 10 microliter reaction). […] Data was analyzed using Hits Well Analyzer Software from (Caliper Life Sciences) to obtain the amount of product formed.
(§6) Data was then imported into an internal application where each data point was expressed as % inhibition based on uninhibited and no enzyme controls. […]

[3] = tested on: MSU LN 11 De novo B-cell lymphoma lymph node cells; experiment: Cell Proliferation Inhibitory Assay, ex vivo canine lymphoma nodal tissue MSU LN 11; format: cell-based; conditions: Canis lupus familiaris; Canine MSU LN 11, De novo B-cell lymphoma; LPS + ConA
Experimental: as §1

[4] = tested on: FETJ feline T-lymphoblast cell line; experiment: Cell Proliferation Inhibitory Assay, FETJ; format: cell-based; conditions: Felis catus; Feline FETj lymphoid line (IL-2 independent); MTS
Experimental: (§2) Feline Cell Lines The MYA-1 and FETJ are feline T-lymphoblast cell lines obtained from ATCC (Manassas, Va.). These cells were cultured in RPMI 1640 complete media supplemented with 10% FBS at 37° C. in a humidified incubator with 5% CO2.
(§3) Cells cultured in medium described above were plated in 96-well Costar plates (Corning) at a density of 1×10^3 cells/well (feline cell lines) or 2×10^5 cells/well (lymph node cells) and exposed to various concentrations of test compounds for up to 5 days at 37° C. in a humidified incubator with 5% CO2. Effects on proliferation were determined using the CellTiter 96® AQueous Non-Radioactive Cell Proliferation Assay (Promega) according to manufacturer's instructions. In general, proliferation was indirectly measured using a soluble tetrazolium salt (MTS) and an electron coupling agent. MTS bioreduction into a formazan product soluble in tissue culture medium was monitored by absorbance at 490 nm on a Spectramax plate reader using Softmax Pro 4.6 software (Molecular Devices).

[5] = tested on: MSU LN 8 De novo T-cell lymphoma lymph node cells; experiment: Cell Proliferation Inhibitory Assay, ex vivo canine lymphoma nodal tissue MSU LN 8; format: cell-based; conditions: Canis lupus familiaris, Canine MSU LN 8, De novo T-cell lymphoma
Experimental: as §1

[6] = tested on: MSU LN 9 De novo B-cell lymphoma lymph node cells; experiment: Cell Proliferation Inhibitory Assay, ex vivo canine lymphoma nodal tissue MSU LN 9; format: cell-based; conditions: Canis lupus familiaris, Canine MSU LN 9, De novo B-cell lymphoma
Experimental: as §1

[7] = target: Recombinant JAK-1 (GST-JAK-1 (852-1142)) (Homo sapiens (Human), UniProt P23458); experiment: JAK Enzymatic Assay (peptide mobility shift), JAK-1; format: biochemical; conditions: ATP 40 micromolar, IRS-1 peptide, 240 minutes
Experimental: as §4, §5, §6

[8] = tested on: MYA-1 feline T-lymphoblast cell line; experiment: Cell Proliferation Inhibitory Assay, MYA-1; format: cell-based; conditions: Felis catus; Feline MYA-1 lymphoid line (IL-2 dependent); MTS
Experimental: as §2, §3

Recombinant JAK-3 = Recombinant JAK-3 (Homo sapiens (Human), UniProt P52333); experiment: JAK Enzymatic Assay (peptide mobility shift), JAK-3; format: biochemical; conditions: ATP 4 micromolar, JAKtide, 90 minutes
Experimental: as §4, §5, §6

[9] = tested on: flea-associated pruritus and dermatitis in flea allergic dogs; experiment: Reducing Flea-Associated Pruritus and Dermatitis Assay; format: in vivo; conditions: for pruritus as compared to placebo (seconds of pruritus per 4 hour recording): 10% level of significance
Experimental: Twenty eight male and female dogs of mixed breeds ranging in weight from 5-35 kg and greater than one year of age were infested with approximately 100 unfed adult cat fleas (Ctenocephalides felis) 14 days prior to the start of dosing and reinfested with 30 fleas per dog every 4 days throughout the study. Seven days before dosing, twenty four dogs were randomized into three different treatment groups, placebo, 0.5 mg/kg or 0.25 mg/kg of the compound of Example 1b, based on visual analog scale (VAS) scores for skin lesions. Treatments were given orally twice a day for 28 days, and pruritic behavior as well as erythema and skin lesions were was assessed during the study. Pruritic behavior was recorded by placing dogs into pens with video recording capability, and recording their activity over 4 hours. Pruritic activity was quantitated by determining how many seconds the dogs spent scratching. Skin lesions were recorded by image capture of abdominal, inguinal region and the severity ranked according to a visual analog scale (VAS).
Video captured elapsed time of pruritic behavior was analyzed using a mixed linear model for repeated measures. The model included fixed effects of treatment and day of study and the interaction of treatment and day of study. Random effects included block, the interaction of block and treatment and error. Baseline data for pruritic behavior (day −1) were used as covariate in the analysis of pruritic behavior. Least squares means were used as estimates of treatment means. Standard errors of least squares means were estimated and 90% confidence intervals were constructed. Geometric means were computed from the least squares means for log-transformed data. A priori contrasts were used to assess treatment. Treatment differences were assessed at the 10% level of significance (P≦0.10).

Recombinant JAK-3, sequence (P52333 781-1124): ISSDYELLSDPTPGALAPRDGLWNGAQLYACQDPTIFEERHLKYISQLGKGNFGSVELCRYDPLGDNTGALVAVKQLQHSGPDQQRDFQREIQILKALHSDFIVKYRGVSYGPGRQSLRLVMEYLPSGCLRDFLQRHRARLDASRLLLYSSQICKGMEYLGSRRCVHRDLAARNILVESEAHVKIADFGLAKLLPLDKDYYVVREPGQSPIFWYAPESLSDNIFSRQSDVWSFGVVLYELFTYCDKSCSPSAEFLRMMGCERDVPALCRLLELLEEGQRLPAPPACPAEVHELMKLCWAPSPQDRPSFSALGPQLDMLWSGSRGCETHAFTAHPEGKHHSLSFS
Recombinant JAK-2, sequence (O60674 808-1132): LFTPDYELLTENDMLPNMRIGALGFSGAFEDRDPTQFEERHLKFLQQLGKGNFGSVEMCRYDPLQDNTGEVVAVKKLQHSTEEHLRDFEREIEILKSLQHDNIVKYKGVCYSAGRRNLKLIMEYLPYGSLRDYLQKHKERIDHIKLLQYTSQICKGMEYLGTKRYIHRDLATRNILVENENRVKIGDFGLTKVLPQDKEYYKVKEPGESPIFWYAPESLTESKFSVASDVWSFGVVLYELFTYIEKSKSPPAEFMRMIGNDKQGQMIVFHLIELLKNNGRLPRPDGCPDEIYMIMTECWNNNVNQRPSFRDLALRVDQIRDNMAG
Recombinant JAK-1 (GST-JAK-1 (852-1142)), sequence (P23458 852-1142): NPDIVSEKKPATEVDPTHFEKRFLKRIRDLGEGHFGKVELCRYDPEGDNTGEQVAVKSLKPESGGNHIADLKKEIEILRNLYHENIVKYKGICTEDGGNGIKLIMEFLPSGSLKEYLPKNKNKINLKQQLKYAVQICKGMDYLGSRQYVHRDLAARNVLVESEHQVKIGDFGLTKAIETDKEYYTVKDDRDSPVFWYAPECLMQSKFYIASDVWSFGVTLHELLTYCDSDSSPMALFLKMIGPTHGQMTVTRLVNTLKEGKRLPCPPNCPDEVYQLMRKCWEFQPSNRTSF

CNS(=O)(=O)C[C@H]1CC[C@H](N(C)c2ncnc3[nH]ccc23)CC1 [Example 1a, N-methyl-1-{trans-4-[methyl(7H-pyrrolo[2,3-d]pyrimidin-4-yl)amino]cyclohexyl}methanesulfonamide]
IC50 [1]: 687 nM
IC50 ([2]; whole blood from beagles): 66.3 nM
IC50 ([2]; whole blood from mixed breed dogs): 138 nM
IC50 (Recombinant JAK-2): 17.5 nM
IC50 [3]: 64 nM
IC50 [4]: > 1000 nM
IC50 ([5]; LPS + ConA): 357 nM
IC50 ([5]; SAC + IL-2): 38 nM
IC50 ([6]; LPS + ConA): 147 nM
IC50 ([6]; SAC + IL-2): 100 nM
IC50 [7]: 9.53 nM
IC50 [8]: 122 nM
IC50 (Recombinant JAK-3): 95.1 nM

CNS(=O)(=O)C[C@H]1CC[C@H](N(C)c2ncnc3[nH]ccc23)CC1.O=C(O)/C=C\C(=O)O [Example 1b, N-methyl-1-{trans-4-[methyl(7H-pyrrolo[2,3-d]pyrimidin-4-yl)amino]cyclohexyl}methanesulfonamide maleic acid salt]
pruritus as compared to placebo (seconds of pruritus per 4 hour recording) ([9]; 0.25 mg/kg orally twice a day, days 1, 4 and 12): Significant reductions
Lesions and erythema (VAS scores) ([9]; 0.5 mg/kg orally twice a day for 28 days, flea allergic dogs, Day 27 VAS): significantly reduced
pruritus as compared to placebo (seconds of pruritus per 4 hour recording) ([9]; 0.5 mg/kg orally twice a day, days 1 and 20): Significant reductions

CN(c1ncnc2[nH]ccc12)[C@H]1CC[C@H](CS(=O)(=O)NC2CCC2)CC1 [Example 2, N-cyclobutyl-1-{trans-4-[methyl(7H-pyrrolo[2,3-d]pyrimidin-4-yl)amino]cyclohexyl}methanesulfonamide]
IC50 ([2]; whole blood from beagles): 410 nM
IC50 (Recombinant JAK-2): 101 nM
IC50 [7]: 45 nM
IC50 (Recombinant JAK-3): 742 nM

CCNS(=O)(=O)C[C@H]1CC[C@H](N(C)c2ncnc3[nH]ccc23)CC1 [Example 3, N-ethyl-1-{trans-4-[methyl(7H-pyrrolo[2,3-d]pyrimidin-4-yl)amino]cyclohexyl}methanesulfonamide]
IC50 ([2]; whole blood from beagles): 83 nM
